The results in this text go back to article PMC11879040, “Advancing systemic toxicity risk assessment: Evaluation of a NAM-based toolbox approach” (Toxicological Sciences, 2024).

Read-outs that look alike come from different tables or passages of the source.

Series [1] has as its target T1, Alpha-2A adrenergic receptor, ADRA2A (h) (Homo sapiens, UniProt P08913).
T1 sequence (P08913 1-465): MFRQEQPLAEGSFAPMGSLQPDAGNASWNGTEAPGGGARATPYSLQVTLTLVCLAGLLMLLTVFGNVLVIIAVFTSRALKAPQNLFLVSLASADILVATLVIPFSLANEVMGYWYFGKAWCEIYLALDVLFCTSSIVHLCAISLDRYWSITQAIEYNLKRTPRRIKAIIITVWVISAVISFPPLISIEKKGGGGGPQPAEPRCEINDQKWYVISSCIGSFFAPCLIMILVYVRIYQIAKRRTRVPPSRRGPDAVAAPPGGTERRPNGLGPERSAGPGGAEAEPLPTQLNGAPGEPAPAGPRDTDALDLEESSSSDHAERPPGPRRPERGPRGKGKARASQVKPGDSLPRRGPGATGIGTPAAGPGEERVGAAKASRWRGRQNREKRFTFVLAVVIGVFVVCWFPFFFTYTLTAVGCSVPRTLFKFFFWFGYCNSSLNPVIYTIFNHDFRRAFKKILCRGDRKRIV
The following applies: control yohimbine.

For series [2], the target named is Beta-1 adrenergic receptor, ADRB1 (h) (Homo sapiens, UniProt P08588). The following applies: control atenolol.
Beta-1 adrenergic receptor, ADRB1 (h), sequence (P08588 whole entry): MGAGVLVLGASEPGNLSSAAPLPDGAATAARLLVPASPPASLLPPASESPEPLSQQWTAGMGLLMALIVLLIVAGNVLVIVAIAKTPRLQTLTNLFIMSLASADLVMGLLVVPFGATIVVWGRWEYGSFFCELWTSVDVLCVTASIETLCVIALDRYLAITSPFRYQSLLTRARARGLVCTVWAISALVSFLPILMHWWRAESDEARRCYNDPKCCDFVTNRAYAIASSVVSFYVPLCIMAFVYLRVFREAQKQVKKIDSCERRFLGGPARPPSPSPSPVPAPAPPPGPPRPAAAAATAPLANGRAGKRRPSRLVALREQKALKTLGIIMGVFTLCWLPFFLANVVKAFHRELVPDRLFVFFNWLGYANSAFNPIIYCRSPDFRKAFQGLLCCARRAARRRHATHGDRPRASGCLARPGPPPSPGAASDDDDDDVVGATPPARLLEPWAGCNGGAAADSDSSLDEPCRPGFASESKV
The target of series [3] is Sodium-dependent dopamine transporter, SLC6A3 (h) (Homo sapiens, UniProt Q01959). The following applies: control BTCP.
The target of series [4] is Prostaglandin G/H synthase 1, PTGS1(h) (Homo sapiens, UniProt P23219). Put plainly: IPP PTGS1 enzymatic activity. Type of series: biochemical. Particulars: control Diclofenac.
For series [5], the target named is T2, Muscarinic acetylcholine receptor M3, CHRM3 (h) (Homo sapiens, UniProt P20309).
T2 construct: purchased Eurofins Cerep (SafetyScreen44-based IPP panel)
Type of series: binding. The following applies: 10 uM; ligand/control 4-DAMP.

In series [6] the target is T3, Muscarinic acetylcholine receptor M2, CHRM2 (h) (Homo sapiens, UniProt P08172).
T3 sequence (P08172 1-466): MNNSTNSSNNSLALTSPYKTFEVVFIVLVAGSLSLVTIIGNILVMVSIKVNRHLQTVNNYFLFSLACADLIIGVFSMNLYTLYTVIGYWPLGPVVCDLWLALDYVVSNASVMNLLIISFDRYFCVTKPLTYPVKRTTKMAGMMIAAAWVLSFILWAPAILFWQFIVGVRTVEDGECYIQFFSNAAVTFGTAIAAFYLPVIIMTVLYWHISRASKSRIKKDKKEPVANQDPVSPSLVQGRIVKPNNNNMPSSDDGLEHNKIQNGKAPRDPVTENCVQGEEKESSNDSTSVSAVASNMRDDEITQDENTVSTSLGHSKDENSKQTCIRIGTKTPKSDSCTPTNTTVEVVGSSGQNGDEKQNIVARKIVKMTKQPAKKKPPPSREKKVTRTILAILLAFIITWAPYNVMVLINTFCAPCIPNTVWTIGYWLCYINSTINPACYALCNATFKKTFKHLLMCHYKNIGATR
The following applies: control methoctramine.

In series [7] the target is 5-hydroxytryptamine receptor 1B, HTR1B (h) (Homo sapiens, UniProt P28222). The series is classed as binding. The following applies: IPP screening at 10 uM; control serotonin.
5-hydroxytryptamine receptor 1B, HTR1B (h), sequence (P28222 whole entry): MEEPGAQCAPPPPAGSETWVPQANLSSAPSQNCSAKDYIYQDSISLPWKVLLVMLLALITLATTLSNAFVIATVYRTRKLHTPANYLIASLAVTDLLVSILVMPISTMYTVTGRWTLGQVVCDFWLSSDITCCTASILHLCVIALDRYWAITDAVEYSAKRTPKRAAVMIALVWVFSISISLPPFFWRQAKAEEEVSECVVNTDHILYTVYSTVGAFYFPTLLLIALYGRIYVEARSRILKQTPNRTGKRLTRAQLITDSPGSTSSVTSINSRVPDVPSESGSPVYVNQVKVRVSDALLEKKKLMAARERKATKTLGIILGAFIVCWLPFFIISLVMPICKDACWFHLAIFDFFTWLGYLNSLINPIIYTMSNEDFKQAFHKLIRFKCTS
The target of series [8] is Neuronal acetylcholine receptor subunit alpha-4, CHRNA4 (h) (Homo sapiens, UniProt P17787+P43681). Particulars: control nicotine.
Neuronal acetylcholine receptor subunit alpha-4, CHRNA4 (h), sequence (P43681 29-627 limits assumed): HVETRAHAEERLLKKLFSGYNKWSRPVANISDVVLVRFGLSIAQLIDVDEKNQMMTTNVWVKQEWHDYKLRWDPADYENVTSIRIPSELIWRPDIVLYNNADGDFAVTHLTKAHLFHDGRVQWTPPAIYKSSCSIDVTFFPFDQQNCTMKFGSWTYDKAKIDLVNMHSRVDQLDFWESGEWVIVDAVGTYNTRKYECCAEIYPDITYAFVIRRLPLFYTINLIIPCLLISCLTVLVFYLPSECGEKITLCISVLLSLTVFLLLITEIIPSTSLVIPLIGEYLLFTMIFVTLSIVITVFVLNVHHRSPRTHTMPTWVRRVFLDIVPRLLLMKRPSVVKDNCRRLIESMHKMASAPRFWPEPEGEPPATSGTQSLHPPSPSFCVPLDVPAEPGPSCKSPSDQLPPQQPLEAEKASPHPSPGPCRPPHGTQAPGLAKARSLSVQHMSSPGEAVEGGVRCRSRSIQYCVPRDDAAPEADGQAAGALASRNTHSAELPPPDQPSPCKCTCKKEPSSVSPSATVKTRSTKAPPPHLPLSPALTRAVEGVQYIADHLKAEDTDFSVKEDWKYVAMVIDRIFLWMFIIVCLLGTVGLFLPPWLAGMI
Neuronal acetylcholine receptor subunit alpha-4, CHRNA4 (h), sequence (P17787 26-502): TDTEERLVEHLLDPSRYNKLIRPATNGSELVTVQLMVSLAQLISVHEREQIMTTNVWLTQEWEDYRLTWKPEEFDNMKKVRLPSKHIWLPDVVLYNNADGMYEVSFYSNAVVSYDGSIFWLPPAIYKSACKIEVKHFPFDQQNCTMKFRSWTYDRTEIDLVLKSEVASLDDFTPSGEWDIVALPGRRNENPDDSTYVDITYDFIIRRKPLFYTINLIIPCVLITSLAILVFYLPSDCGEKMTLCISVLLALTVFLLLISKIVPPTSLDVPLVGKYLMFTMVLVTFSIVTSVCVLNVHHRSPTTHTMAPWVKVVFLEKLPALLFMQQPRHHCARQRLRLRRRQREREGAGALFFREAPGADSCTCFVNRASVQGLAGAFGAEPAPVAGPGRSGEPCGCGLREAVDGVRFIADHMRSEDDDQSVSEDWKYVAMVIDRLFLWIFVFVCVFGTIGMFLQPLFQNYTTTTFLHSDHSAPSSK
Series [9] has as its target Voltage-dependent L-type Ca2+ channel (dihydropyridine site), CACNA1C (r) (Rattus norvegicus, UniProt P22002). Type of series: binding.
Series [10] can be described thus: Assignment of risk classifications to benchmark chemical-exposure scenarios. Particulars: for risk: Oral, Tablet, from table S1.
Series [11] concerns the target cGMP-inhibited 3',5'-cyclic phosphodiesterase A, PDE3A (h) (Homo sapiens, UniProt Q14432). Put plainly: IPP PDE3A enzymatic activity. The series is classed as biochemical. The following applies: control milrinone.
Series [12] relates to Potassium Voltage-Gated Channel Kv non-selective, KCNQ1 (r). Put plainly: IPP KCNQ1 binding (antagonist radioligand). Also on record: species or system rat.
Series [13] has as its target Cannabinoid receptor 1, CNR1 (h) (Homo sapiens, UniProt P21554). Type of series: binding. The following applies: control CP 55940.
Series [14] concerns Gamma-aminobutyric acid receptor subunit alpha-1 BZD site, GABRA1A (r). Type of series: binding, rat.
Series [15] has as its target Angiotensin-converting enzyme 2, ACE2 (h) (Homo sapiens, UniProt Q9BYF1). Briefly: IPP ACE2 enzymatic activity. The series is classed as biochemical. The following applies: 10 uM; control captopril.
Series [16] deals with Cannabinoid receptor 2, CNR2 (h) (Homo sapiens, UniProt P34972). The series is classed as binding. The following applies: IPP screening at 10 uM; control WIN 55212-2.
Cannabinoid receptor 2, CNR2 (h), sequence (P34972 whole entry): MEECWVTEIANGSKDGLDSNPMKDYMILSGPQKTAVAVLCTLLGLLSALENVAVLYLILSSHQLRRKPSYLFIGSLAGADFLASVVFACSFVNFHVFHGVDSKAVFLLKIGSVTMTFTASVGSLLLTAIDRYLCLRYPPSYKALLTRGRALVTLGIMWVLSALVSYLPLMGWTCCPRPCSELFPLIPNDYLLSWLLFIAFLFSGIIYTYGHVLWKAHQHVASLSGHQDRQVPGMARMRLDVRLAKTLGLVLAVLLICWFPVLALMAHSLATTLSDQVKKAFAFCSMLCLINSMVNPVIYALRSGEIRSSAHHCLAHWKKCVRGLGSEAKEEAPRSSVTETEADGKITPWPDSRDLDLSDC
The target in series [17] is 5-hydroxytryptamine receptor 2A, HTR2A (h) (Homo sapiens, UniProt P28223). Type of series: binding.
5-hydroxytryptamine receptor 2A, HTR2A (h), sequence (P28223 whole entry): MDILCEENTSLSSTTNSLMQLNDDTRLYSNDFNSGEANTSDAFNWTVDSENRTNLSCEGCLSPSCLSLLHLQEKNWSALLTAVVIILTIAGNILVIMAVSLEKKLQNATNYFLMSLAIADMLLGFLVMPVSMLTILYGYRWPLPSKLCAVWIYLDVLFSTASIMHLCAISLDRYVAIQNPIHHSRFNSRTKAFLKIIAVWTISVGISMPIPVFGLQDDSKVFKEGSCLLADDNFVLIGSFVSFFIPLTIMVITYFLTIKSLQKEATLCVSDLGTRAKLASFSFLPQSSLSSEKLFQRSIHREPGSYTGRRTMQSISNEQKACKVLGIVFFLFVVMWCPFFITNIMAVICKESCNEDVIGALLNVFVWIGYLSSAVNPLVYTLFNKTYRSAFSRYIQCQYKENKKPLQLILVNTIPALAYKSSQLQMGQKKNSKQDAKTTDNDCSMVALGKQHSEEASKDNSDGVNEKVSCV
The target of series [18] is T4, Endothelin-1 receptor, EDNRA (h) (Homo sapiens, UniProt P25101).
T4 sequence (P25101 21-427): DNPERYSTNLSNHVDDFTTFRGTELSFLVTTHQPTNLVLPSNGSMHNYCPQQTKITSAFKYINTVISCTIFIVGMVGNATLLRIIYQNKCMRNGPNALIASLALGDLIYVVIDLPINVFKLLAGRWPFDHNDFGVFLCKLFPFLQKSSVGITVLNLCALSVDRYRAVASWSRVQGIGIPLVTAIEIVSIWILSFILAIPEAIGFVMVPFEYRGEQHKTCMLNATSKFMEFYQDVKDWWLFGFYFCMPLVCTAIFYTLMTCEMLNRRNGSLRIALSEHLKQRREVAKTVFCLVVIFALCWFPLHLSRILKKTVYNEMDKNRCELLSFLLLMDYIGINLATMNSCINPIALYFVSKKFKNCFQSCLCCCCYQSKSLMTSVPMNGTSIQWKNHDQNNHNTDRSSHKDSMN
Particulars: control endothelin-1.

The mark [19] stands for this setting: IPP screening at 10 uM, control diazepam.
Where [20] appears, read: IPP screening at 10 uM, control (±)DOI.

cGMP-inhibited 3',5'-cyclic phosphodiesterase A, PDE3A (h), sequence (Q14432 whole entry): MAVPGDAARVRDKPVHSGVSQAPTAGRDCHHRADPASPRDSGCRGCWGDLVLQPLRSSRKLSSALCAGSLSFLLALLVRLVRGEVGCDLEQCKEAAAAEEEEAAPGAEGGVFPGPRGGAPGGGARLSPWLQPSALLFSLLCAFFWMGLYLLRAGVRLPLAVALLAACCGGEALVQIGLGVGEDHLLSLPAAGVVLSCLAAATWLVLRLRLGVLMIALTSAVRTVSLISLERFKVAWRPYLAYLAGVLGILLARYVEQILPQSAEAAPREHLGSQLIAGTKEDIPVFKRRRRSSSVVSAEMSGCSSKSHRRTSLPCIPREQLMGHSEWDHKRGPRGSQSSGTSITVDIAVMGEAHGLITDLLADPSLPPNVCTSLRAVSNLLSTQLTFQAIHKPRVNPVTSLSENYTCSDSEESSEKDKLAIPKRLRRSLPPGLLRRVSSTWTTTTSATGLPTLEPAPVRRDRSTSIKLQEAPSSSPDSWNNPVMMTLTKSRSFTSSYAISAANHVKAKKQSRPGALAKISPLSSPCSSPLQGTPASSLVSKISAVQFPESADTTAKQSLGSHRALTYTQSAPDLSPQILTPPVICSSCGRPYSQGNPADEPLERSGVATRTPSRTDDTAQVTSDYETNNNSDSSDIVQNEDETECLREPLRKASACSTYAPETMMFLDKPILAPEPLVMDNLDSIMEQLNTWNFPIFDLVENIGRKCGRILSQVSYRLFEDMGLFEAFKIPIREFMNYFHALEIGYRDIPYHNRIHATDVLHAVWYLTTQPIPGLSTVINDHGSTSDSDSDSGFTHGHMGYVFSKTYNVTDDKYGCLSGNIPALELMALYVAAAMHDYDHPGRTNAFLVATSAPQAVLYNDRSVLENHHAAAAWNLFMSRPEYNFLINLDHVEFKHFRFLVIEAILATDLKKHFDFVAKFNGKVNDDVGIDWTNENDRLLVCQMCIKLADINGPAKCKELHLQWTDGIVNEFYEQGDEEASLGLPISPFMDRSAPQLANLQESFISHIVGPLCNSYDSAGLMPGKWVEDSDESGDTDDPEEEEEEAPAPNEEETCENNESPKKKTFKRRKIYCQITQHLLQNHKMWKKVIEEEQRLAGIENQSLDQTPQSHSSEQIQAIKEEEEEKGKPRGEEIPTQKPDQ
Angiotensin-converting enzyme 2, ACE2 (h), sequence (Q9BYF1 18-805): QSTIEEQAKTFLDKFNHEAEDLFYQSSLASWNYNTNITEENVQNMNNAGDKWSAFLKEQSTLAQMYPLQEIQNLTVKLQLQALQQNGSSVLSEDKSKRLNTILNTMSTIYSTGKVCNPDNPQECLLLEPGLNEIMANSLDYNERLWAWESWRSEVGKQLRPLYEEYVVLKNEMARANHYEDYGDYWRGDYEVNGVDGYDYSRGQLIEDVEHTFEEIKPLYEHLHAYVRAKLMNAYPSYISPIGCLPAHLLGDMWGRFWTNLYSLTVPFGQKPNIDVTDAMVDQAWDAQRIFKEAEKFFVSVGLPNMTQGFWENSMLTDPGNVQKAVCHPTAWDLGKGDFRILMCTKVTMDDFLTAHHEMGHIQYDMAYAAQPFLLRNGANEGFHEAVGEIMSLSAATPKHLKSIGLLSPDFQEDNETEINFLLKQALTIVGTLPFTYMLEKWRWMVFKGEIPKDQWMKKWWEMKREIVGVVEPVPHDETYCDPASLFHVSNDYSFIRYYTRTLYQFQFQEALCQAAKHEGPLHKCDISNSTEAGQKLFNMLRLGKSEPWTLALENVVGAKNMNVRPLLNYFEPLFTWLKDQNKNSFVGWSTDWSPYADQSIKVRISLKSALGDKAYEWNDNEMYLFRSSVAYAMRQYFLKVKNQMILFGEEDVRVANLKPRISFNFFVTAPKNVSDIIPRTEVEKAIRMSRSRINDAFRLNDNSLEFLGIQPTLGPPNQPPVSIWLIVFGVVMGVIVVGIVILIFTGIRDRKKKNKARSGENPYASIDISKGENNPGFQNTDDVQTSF

Take `CCOP(=S)(OCC)Oc1nc(Cl)c(Cl)cc1Cl` [Chlorpyrifos, O,O-Diethyl O-(3,5,6-trichloropyridin-2-yl) phosphorothioate]: the Specific binding in series [1] (IPP screening at 10 uM) is -3.7%; in series [2] (IPP screening at 10 uM) it was 5.3%; in [3] (IPP screening at 10 uM), 34.7%; in series [6] (IPP screening at 10 uM), -21.3%; in [7] it was -20.1%; in series [8] (IPP screening at 10 uM) it was -6.9%. The Specific binding is given as 47.7% in series [9]; 15.4% in [12]; 26.0% in [13] (IPP screening at 10 uM); -11.0% in [14] (setting [19]); 16.0% in [16]; 52.0% in series [17] (setting [20]). Also, the Specific binding in series [18] (IPP screening at 10 uM) was 0.1%. Moreover, the Enzymatic activity stood at 2.7% in series [4] (IPP screening at 10 uM) and 36.9% in [11] (IPP screening at 10 uM). Besides, in series [5], the “IPP screening %, Specific binding” value turned out to be 5.8%. The risk in [10] (0.1 mg/kg, Exp3) is reported as 1. Moreover, in series [15], the “IPP screening %, Enzymatic activity” value was -18.8%.

As to `CC1(C)O[C@@H]2[C@@H](CO[C@@]3(COS(N)(=O)=O)OC(C)(C)O[C@@H]23)O1` [Topiramate, [(3aS,5aR,8aR,8bS)-2,2,7,7-Tetramethyltetrahydro-2H,3aH,7H-bis[1,3]dioxolo[4,5-b:4',5'-d]pyran-3a-yl]methyl sulfamate (non-preferred name)], the Specific binding in series [1] (IPP screening at 100 uM) is given as -5.6%; in series [2] (IPP screening at 100 uM), -2.9%; in series [3] (IPP screening at 100 uM) it was 0.1%; in [6] (IPP screening at 100 uM), 0.7%; in series [8] (IPP screening at 100 uM), 3.3%; in series [9], -33.5%. Also, the Specific binding in series [12] (IPP screening at 100 uM, control α-dendrotoxin) was -2.7%; in series [13] (IPP screening at 100 uM), 10.5%; in series [14] (IPP screening at 100 uM, control diazepam) it was 9.7%; in series [17] (IPP screening at 100 uM; control ±)DOI), 0.9%; in series [18] (IPP screening at 100 uM), 5.1%. Besides, the Enzymatic activity in series [4] (IPP screening at 100 uM) was -1.5%; in [11] (IPP screening at 100 uM), 12%. Moreover, the “Risk Classification” value in series [10] (Oral 50 mg/day) and in series [10] (Oral 500 mg/day) was “High risk” throughout. Also, the risk is reported as 1 in series [10] (High therapeutic, 500mg/day, Exp1) and 1 in series [10] (Low therapeutic, 50mg/day, Exp2).

Turning to “(4S,4aR,5S,5aR,6S,12aS)-4-(Dimethylamino)-3,5,6,10,12,12a-hexahydroxy-6-methyl-1,11-dioxo-1,4,4a,5,5a,6,11,12a-octahydrotetracene-2-carboxamide--hydrogen chloride (1/1) [Oxytetracycline hydrochloride]”, the Specific binding in [1] (IPP screening at 10 uM) is on record as -1.4%; in [2] (IPP screening at 10 uM), 7.5%; in [3] (IPP screening at 10 uM), -0.9%; in series [7], -8.9%; in series [8] (IPP screening at 10 uM) it was -2.5%; in [9], -32.1%. Moreover, the Specific binding in series [12] is listed as -19.0%; in [13] (IPP screening at 10 uM), 25.7%; in [14] (setting [19]), -0.4%; in series [16] it was 4.9%; in [18] (IPP screening at 10 uM), -1.2%. Further, the Enzymatic activity in series [4] (IPP screening at 10 uM) was -5.1%; in [11] (IPP screening at 10 uM) it was 30.0%. Besides, the “IPP screening %, Enzymatic activity” value in series [15] is -18.6%.

For the compound “mixture of 2- and 3-tert-butyl-4-methoxyphenol [Butylated Hydroxyanisole]”, the Specific binding was 1.5% in series [1] (IPP screening at 10 uM); 6.3% in series [2] (IPP screening at 10 uM); 20.6% in series [3] (IPP screening at 10 uM); 8.9% in series [6] (IPP screening at 10 uM); 0.6% in series [7]; -5.0% in series [8] (IPP screening at 10 uM). Moreover, the Specific binding in series [9] is listed as -14.2%; in [12], 4.9%; in [13] (IPP screening at 10 uM) it was -27.5%; in series [14] it was -10.9%; in series [16], -1.2%; in series [17] (setting [20]), 74.3%. Moreover, the Specific binding in [18] (IPP screening at 10 uM) is -10.4%. Also, the Enzymatic activity in series [4] (IPP screening at 10 uM) is on record as 46.1%; in series [11] (IPP screening at 10 uM) it was 22.6%. Besides, the “IPP screening %, Specific binding” value in [5] is on record as -7.7%. Besides, the “IPP screening %, Enzymatic activity” value in series [15] is -6.0%.
